Values quoted from earlier work as cited in patent publication US12533325B2, “Composition and method for preventing or treating opioid withdrawal symptoms” (priority 2023, dated 2026).

System: heroin-seeking behavior

C=C(C)[C@@H]1CCC(C)=C[C@H]1c1c(O)cc(CCCCC)cc1O [CBD, Cannabidiol]
heroin-seeking behavior reinstated by a conditional stimulus (cue-induced reinstatement): attenuated heroin-seeking behavior reinstated by a conditional stimulus | persistence of effect on heroin-seeking behavior after administration (twenty-four hours and two weeks after administration): protracted effect with significance after twenty-four hours and even two weeks after administration
